In BindingDB's records for doi:10.1021/acs.jmedchem.9b02101 (Kyorin Pharmaceutical, 2020):

Legend:
[1] = Agonist activity at FPR2 in human HL-60 cells assessed as reduction in chemoattractant induced chemotaxis by luminescence cell viability assay
[2] = Agonist activity at FPR2 in mouse peritoneal macrophages assessed as stimulation of phagocytosis preincubated for 15 mins followed by FITC labeled zymosan addition and measured after 45 mins by Trypan blue staining based fluorescence assay

Structure (SMILES): COc1cc(F)c([C@@H]2CNC(=O)[C@H]2NC(=O)Nc2ccccc2)c(F)c1
- IC50 [1]: 57 nM
- EC50 [2]: < 1 nM
